Assay results reported in US12459922B2 (Gilead Sciences, Inc., priority 2022, dated 2025).
pEC50, pIC50: −log10 of the molar value.

Legend:
PARP7 = target: T1, PARP7 (Homo sapiens, UniProt Q7Z3E1); assay: Probe Displacement Assay for PARP7 (MSD electrochemiluminescent, biotinylated probe RBNO11147); conditions: displacement of biotinylated probe RBNO11147 from PARP7 NAD+-binding site; read-out: MSD ProbeDisp PARP7 IC50
T1 sequence (Q7Z3E1 1-657): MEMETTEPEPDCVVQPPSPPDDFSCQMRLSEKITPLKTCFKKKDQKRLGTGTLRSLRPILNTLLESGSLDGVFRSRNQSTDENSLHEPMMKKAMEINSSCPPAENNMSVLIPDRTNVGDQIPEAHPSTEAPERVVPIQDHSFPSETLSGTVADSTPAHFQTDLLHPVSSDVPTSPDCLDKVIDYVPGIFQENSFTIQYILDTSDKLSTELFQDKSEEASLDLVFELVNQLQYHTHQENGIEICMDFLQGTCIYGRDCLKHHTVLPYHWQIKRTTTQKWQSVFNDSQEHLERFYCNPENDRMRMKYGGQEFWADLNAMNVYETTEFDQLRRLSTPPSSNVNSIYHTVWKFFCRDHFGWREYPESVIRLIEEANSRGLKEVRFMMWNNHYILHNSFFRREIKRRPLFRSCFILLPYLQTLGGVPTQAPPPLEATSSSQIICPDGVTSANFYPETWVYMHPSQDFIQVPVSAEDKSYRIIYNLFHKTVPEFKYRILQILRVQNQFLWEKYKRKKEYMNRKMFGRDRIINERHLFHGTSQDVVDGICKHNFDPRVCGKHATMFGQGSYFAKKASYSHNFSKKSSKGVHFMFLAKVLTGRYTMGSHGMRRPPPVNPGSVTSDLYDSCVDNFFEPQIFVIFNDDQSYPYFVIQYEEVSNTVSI
Experimental: Displacement of a biotinylated probe (RBNO11147; Wigle et al., Cell Chemical Biology, 2020, pp. 877-887) from the PARP7 NAD+-binding site was measured in vitro using a Mesoscale Discovery electrochemiluminescent assay. […] Next, 10 ml of 10 nM PARP7 protein incubated for 1 hour at room temperature with a dose response curve of each test compound in a Greiner LDV polypropylene plate (#781201) is added to the MSD plate containing the immobilized probe. The interaction is allowed to reach equilibrium for 1.5 hours, and then 10 ml of SULFO-TAG labeled anti-GST antibody (Cat #R32AA-1) is added to each well and allowed to incubate for an additional 1.5 hours at room temperature. Finally, 10 ml of MSD read buffer T (4×, Cat. #R92C-1) is added to each well using a Bravo liquid handler to prevent air bubbles in the wells, and the plates are subsequently read in an MSD instrument. Light intensity is then measured to quantify the amount of PARP7 bound to the immobilized probe on the plate.

[1] = system: endogenous cellular STAT1 (phosphorylated at Tyr701) in NCI-H1373 cells; assay: Phospho-STAT1 (Tyr701) LANCE Ultra TR-FRET Detection Assay; assay type: cell-based; conditions: Homo sapiens, NCI-H1373, 48 h, phospho-STAT1 (Tyr701) induction, read-out: NH1373 pSTAT1 EC50

Row | pIC50 (PARP7) | pEC50 [1] | SMILES
1 | 8.67 | 5.56 | C[C@@H](CCCn1ccc2cc(-c3ccc(C(N)C(F)(F)F)cn3)c(F)cc2c1=O)Nc1cn[nH]c(=O)c1C(F)(F)F (stereo partly drawn) [Example 50, 6-[5-(1-amino-2,2,2-trifluoro-ethyl)-2-pyridyl]-7-fluoro-2-[(4S)-4-[[6-oxo-5-(trifluoromethyl)-1H-pyridazin-4-yl]amino]pentyl]isoquinolin-1-one]
2 | 9.12 | 6.78 | C[C@@H](CCCn1ccc2cc(-c3ccc(F)cn3)c(F)c(F)c2c1=O)Nc1cn[nH]c(=O)c1C(F)(F)F [Example 52, (S)-7,8-difluoro-6-(5-fluoropyridin-2-yl)-2-(4-((6-oxo-5-(trifluoromethyl)-1,6-dihydropyridazin-4-yl)amino)pentyl)isoquinolin-1(2H)-one]
3 | 9.30 | 7.77 | C[C@@H](CCCn1ccc2cc(-c3ncc(C(F)F)cn3)c(F)c(F)c2c1=O)Nc1cn[nH]c(=O)c1C(F)(F)F [Example 53, (S)-6-(5-(difluoromethyl)pyrimidin-2-yl)-7,8-difluoro-2-(4-((6-oxo-5-(trifluoromethyl)-1,6-dihydropyridazin-4-yl)amino)pentyl)isoquinolin-1(2H)-one]
4 | 9.16 | 6.81 | C[C@@H](CCCn1ccc2cc(-c3ncc(F)cn3)c(F)c(F)c2c1=O)Nc1cn[nH]c(=O)c1C(F)(F)F [Example 54, (S)-7,8-difluoro-6-(5-fluoropyrimidin-2-yl)-2-(4-((6-oxo-5-(trifluoromethyl)-1,6-dihydropyridazin-4-yl)amino)pentyl)isoquinolin-1(2H)-one]
5 | 9.16 | 7.41 | C[C@@H](CCCn1ccc2cc(-c3ccc(C(F)(F)F)cn3)c(F)c(F)c2c1=O)Nc1cn[nH]c(=O)c1C(F)(F)F [Example 55, (S)-7,8-difluoro-2-(4-((6-oxo-5-(trifluoromethyl)-1,6-dihydropyridazin-4-yl)amino)pentyl)-6-(5-(trifluoromethyl)pyridin-2-yl)isoquinolin-1(2H)-one]
6 | 9.24 | 7.17 | C[C@@H](CCCn1ccc2cc(-c3ncc(OC(F)F)cn3)c(F)c(F)c2c1=O)Nc1cn[nH]c(=O)c1C(F)(F)F [Example 56, (S)-6-(5-(difluoromethoxy)pyrimidin-2-yl)-7,8-difluoro-2-(4-((6-oxo-5-(trifluoromethyl)-1,6-dihydropyridazin-4-yl)amino)pentyl)isoquinolin-1(2H)-one]
7 | 9.21 | 6.84 | C[C@@H](CCCn1ccc2cc(-c3ccc(OC(F)F)cn3)c(F)c(F)c2c1=O)Nc1cn[nH]c(=O)c1C(F)(F)F [Example 57, (S)-6-(5-(difluoromethoxy)pyridin-2-yl)-7,8-difluoro-2-(4-((6-oxo-5-(trifluoromethyl)-1,6-dihydropyridazin-4-yl)amino)pentyl)isoquinolin-1(2H)-one]
8 | 9.32 | 6.91 | C[C@@H](CCCn1cnc2cc(-c3ccc(C(F)(F)F)cn3)c(F)cc2c1=O)Nc1cn[nH]c(=O)c1C(F)(F)F [Example 58, (S)-6-fluoro-3-(4-((6-oxo-5-(trifluoromethyl)-1,6-dihydropyridazin-4-yl)amino)pentyl)-7-(5-(trifluoromethyl)pyridin-2-yl)quinazolin-4(3H)-one]
9 | 9.09 | 6.41 | C[C@@H](CCCn1cnc2cc(-c3ccc(F)cn3)c(F)cc2c1=O)Nc1cn[nH]c(=O)c1C(F)(F)F [Example 59, (S)-6-fluoro-7-(5-fluoropyridin-2-yl)-3-(4-((6-oxo-5-(trifluoromethyl)-1,6-dihydropyridazin-4-yl)amino)pentyl)quinazolin-4(3H)-one]
10 | 9.05 | 6.11 | C[C@@H](CCCn1cnc2cc(-c3ncc(F)cn3)c(F)cc2c1=O)Nc1cn[nH]c(=O)c1C(F)(F)F [Example 60, 6-fluoro-7-(5-fluoropyrimidin-2-yl)-3-[(4S)-4-[[6-oxo-5-(trifluoromethyl)-1H-pyridazin-4-yl]amino]pentyl]quinazolin-4-one]
11 | 8.90 | 6.19 | O=c1[nH]ncc(NC2(CCCn3ccc4cc(-c5ncc(C(F)(F)F)cn5)c(F)cc4c3=O)CC2)c1C(F)(F)F [Example 61, 7-fluoro-2-(3-(1-((6-oxo-5-(trifluoromethyl)-1,6-dihydropyridazin-4-yl)amino)cyclopropyl)propyl)-6-(5-(trifluoromethyl)pyrimidin-2-yl)isoquinolin-1(2H)-one]
12 | 9.39 | 7.67 | C[C@@H](CCCn1ccc2cc(-c3ncc(C(F)F)cn3)c(F)cc2c1=O)Nc1cn[nH]c(=O)c1C(F)(F)F [Example 76, 6-[5-(difluoromethyl)pyrimidin-2-yl]-7-fluoro-2-[(4S)-4-[[6-oxo-5-(trifluoromethyl)-1H-pyridazin-4-yl]amino]pentyl]isoquinolin-1-one]
13 | 9.48 | 8.34 | C[C@@H](CCCn1ccc2cc(-c3ncc(C(F)F)c(N)n3)c(F)cc2c1=O)Nc1cn[nH]c(=O)c1C(F)(F)F [Example 104, 6-[4-amino-5-(difluoromethyl)pyrimidin-2-yl]-7-fluoro-2-[(4S)-4-[[6-oxo-5-(trifluoromethyl)-1H-pyridazin-4-yl]amino]pentyl]isoquinolin-1-one]
14 | 9.70 | 7.67 | CC[C@@H](CCCn1cnc2cc(-c3ncc(C(F)(F)F)cn3)c(F)cc2c1=O)Nc1cn[nH]c(=O)c1C(F)(F)F [Example 155, (S)-6-fluoro-3-(4-((6-oxo-5-(trifluoromethyl)-1,6-dihydropyridazin-4-yl)amino)hexyl)-7-(5-(trifluoromethyl)pyrimidin-2-yl)quinazolin-4(3H)-one]
15 | 9.54 | 7.66 | CC[C@@H](CCCn1cnc2cc(-c3ncc(C(F)F)cn3)c(F)cc2c1=O)Nc1cn[nH]c(=O)c1C(F)(F)F [Example 156, 7-[5-(difluoromethyl)pyrimidin-2-yl]-6-fluoro-3-[(4S)-4-[[6-oxo-5-(trifluoromethyl)-1H-pyridazin-4-yl]amino]hexyl]quinazolin-4-one]
16 | 9.47 | 7.20 | O=c1[nH]ncc(N[C@@H](CO)CCCn2ccc3cc(-c4ncc(C(F)(F)F)cn4)c(F)c(F)c3c2=O)c1C(F)(F)F [Example 163, 7,8-difluoro-2-[(4R)-5-hydroxy-4-[[6-oxo-5-(trifluoromethyl)-1H-pyridazin-4-yl]amino]pentyl]-6-[5-(trifluoromethyl)pyrimidin-2-yl]isoquinolin-1-one]
17 | 9.59 | 8.88 | O=c1[nH]ncc(N[C@H](CCCn2ccc3cc(-c4ncc(C(F)(F)F)cn4)c(F)cc3c2=O)COC(F)F)c1C(F)(F)F [Example 168, 2-[(4R)-5-(difluoromethoxy)-4-[[6-oxo-5-(trifluoromethyl)-1H-pyridazin-4-yl]amino]pentyl]-7-fluoro-6-[5-(trifluoromethyl)pyrimidin-2-yl]isoquinolin-1-one]
18 | 9.51 | 8.74 | Nc1nc(-c2cc3ccn(C[C@@H]4CCC[C@H](Nc5cn[nH]c(=O)c5C(F)(F)F)C4)c(=O)c3cc2F)ncc1C(F)(F)F [Example 184, 6-[4-amino-5-(trifluoromethyl)pyrimidin-2-yl]-7-fluoro-2-[[(1R,3S)-3-[[6-oxo-5-(trifluoromethyl)-1H-pyridazin-4-yl]amino]cyclohexyl]methyl]isoquinolin-1-one]
